Measurements published in patent US20180214395A1 (priority 2017, published 2018).

Assay: SAD study: cardiac safety (ECG, telemetry, QTcF prolongation)

Structure (SMILES): CCC(=O)C(C[C@H](C)N(C)C)(c1ccccc1)c1ccccc1 [d-methadone]
- Overall ECG result Abnormal, NCS (5 mg (N = 6), 0.5 h): 0 n (%)
- Overall ECG result Normal (5 mg (N = 6), 0.5 h): 6 n (%)
- Overall ECG result Abnormal, NCS (5 mg (N = 6), 1 h): 1 n (%)
- Overall ECG result Normal (5 mg (N = 6), 1 h): 5 n (%)
- Overall ECG result Abnormal, NCS (5 mg (N = 6), 2 h): 3 n (%)
- Overall ECG result Normal (5 mg (N = 6), 2 h): 3 n (%)
- Overall ECG result Abnormal, NCS (5 mg (N = 6), 3 h): 2 n (%)
- Overall ECG result Normal (5 mg (N = 6), 3 h): 4 n (%)
- Overall ECG result Abnormal, NCS (5 mg (N = 6), 5 h): 2 n (%)
- Overall ECG result Normal (5 mg (N = 6), 5 h): 4 n (%)
- Overall ECG result Abnormal, NCS (5 mg (N = 6), 8 h): 0 n (%)
- Overall ECG result Normal (5 mg (N = 6), 8 h): 6 n (%)
- Overall ECG result Abnormal, NCS (5 mg (N = 6), 12 h): 0 n (%)
- Overall ECG result Normal (5 mg (N = 6), 12 h): 6 n (%)
- Overall ECG result Abnormal, NCS (5 mg (N = 6), 24 h): 1 n (%)
- Overall ECG result Normal (5 mg (N = 6), 24 h): 5 n (%)
- Overall ECG result Abnormal, NCS (5 mg (N = 6), 48 h): 0 n (%)
- Overall ECG result Normal (5 mg (N = 6), 48 h): 6 n (%)
- Overall ECG result Abnormal, NCS (5 mg (N = 6), 72 h): 0 n (%)
- Overall ECG result Normal (5 mg (N = 6), 72 h): 6 n (%)
- Overall ECG result Abnormal, NCS (5 mg (N = 6), Visit 3): 1 n (%)
- Overall ECG result Normal (5 mg (N = 6), Visit 3): 5 n (%)
- QTcF Average (5 mg, subject 9002, 5 h): 445 ms
- QTcF Reading 1 (5 mg, subject 9002, 5 h): 451 ms
- QTcF Reading 2 (5 mg, subject 9002, 5 h): 446 ms
- QTcF Reading 3 (5 mg, subject 9002, 5 h): 439 ms
- QTcF Average (5 mg, subject 9003, 1 h): 420 ms
- QTcF Reading 1 (5 mg, subject 9003, 1 h): 437 ms
- QTcF Reading 2 (5 mg, subject 9003, 1 h): 411 ms
- QTcF Reading 3 (5 mg, subject 9003, 1 h): 412 ms
- QTcF Average (5 mg, subject 9003, 2 h): 432 ms
- QTcF Reading 1 (5 mg, subject 9003, 2 h): 440 ms
- QTcF Reading 2 (5 mg, subject 9003, 2 h): 434 ms
- QTcF Reading 3 (5 mg, subject 9003, 2 h): 421 ms
- QTcF Average (5 mg, subject 9003, 3 h): 429 ms
- QTcF Reading 1 (5 mg, subject 9003, 3 h): 424 ms
- QTcF Reading 2 (5 mg, subject 9003, 3 h): 427 ms
- QTcF Reading 3 (5 mg, subject 9003, 3 h): 435 ms
- QTcF Average (5 mg, subject 9003, 5 h): 432 ms
- QTcF Reading 1 (5 mg, subject 9003, 5 h): 434 ms
- QTcF Reading 2 (5 mg, subject 9003, 5 h): 435 ms
- QTcF Reading 3 (5 mg, subject 9003, 5 h): 426 ms
- QTcF Average (5 mg, subject 9009, 2 h): 420 ms
- QTcF Reading 1 (5 mg, subject 9009, 2 h): 413 ms
- QTcF Reading 2 (5 mg, subject 9009, 2 h): 431 ms
- QTcF Reading 3 (5 mg, subject 9009, 2 h): 417 ms
- Overall ECG result Abnormal, NCS (20 mg (N = 6), 0.5 h): 1 (16.7) n (%)
- Overall ECG result Normal (20 mg (N = 6), 0.5 h): 5 (83.3) n (%)
- Overall ECG result Abnormal, NCS (20 mg (N = 6), 1 h): 1 (16.7) n (%)
- Overall ECG result Normal (20 mg (N = 6), 1 h): 5 (83.3) n (%)
- Overall ECG result Abnormal, NCS (20 mg (N = 6), 2 h): 2 (33.3) n (%)
- Overall ECG result Normal (20 mg (N = 6), 2 h): 4 (66.7) n (%)
- Overall ECG result Abnormal, NCS (20 mg (N = 6), 3 h): 2 (33.3) n (%)
- Overall ECG result Normal (20 mg (N = 6), 3 h): 4 (66.7) n (%)
- Overall ECG result Abnormal, NCS (20 mg (N = 6), 5 h): 1 (16.7) n (%)
- Overall ECG result Normal (20 mg (N = 6), 5 h): 5 (83.3) n (%)
- Overall ECG result Abnormal, NCS (20 mg (N = 6), 8 h): 1 (16.7) n (%)
- Overall ECG result Normal (20 mg (N = 6), 8 h): 5 (83.3) n (%)
- Overall ECG result Abnormal, NCS (20 mg (N = 6), 12 h): 1 (16.7) n (%)
- Overall ECG result Normal (20 mg (N = 6), 12 h): 5 (83.3) n (%)
- Overall ECG result Abnormal, NCS (20 mg (N = 6), 24 h): 1 (16.7) n (%)
- Overall ECG result Normal (20 mg (N = 6), 24 h): 5 (83.3) n (%)
- Overall ECG result Abnormal, NCS (20 mg (N = 6), 48 h): 2 (33.3) n (%)
- Overall ECG result Normal (20 mg (N = 6), 48 h): 4 (66.7) n (%)
- Overall ECG result Abnormal, NCS (20 mg (N = 6), 72 h): 1 (16.7) n (%)
- Overall ECG result Normal (20 mg (N = 6), 72 h): 5 (83.3) n (%)
- Overall ECG result Abnormal, NCS (20 mg (N = 6), Visit 3): 0 n (%)
- Overall ECG result Normal (20 mg (N = 6), Visit 3): 6 (100) n (%)
- Overall ECG result Abnormal, NCS (60 mg (N = 6), 0.5 h): 1 (16.7) n (%)
- Overall ECG result Normal (60 mg (N = 6), 0.5 h): 5 (83.3) n (%)
- Overall ECG result Abnormal, NCS (60 mg (N = 6), 1 h): 2 (33.3) n (%)
- Overall ECG result Normal (60 mg (N = 6), 1 h): 4 (66.7) n (%)
- Overall ECG result Abnormal, NCS (60 mg (N = 6), 2 h): 2 (33.3) n (%)
- Overall ECG result Normal (60 mg (N = 6), 2 h): 4 (66.7) n (%)
- Overall ECG result Abnormal, NCS (60 mg (N = 6), 3 h): 1 (16.7) n (%)
- Overall ECG result Normal (60 mg (N = 6), 3 h): 5 (83.3) n (%)
- Overall ECG result Abnormal, NCS (60 mg (N = 6), 5 h): 1 (16.7) n (%)
- Overall ECG result Normal (60 mg (N = 6), 5 h): 5 (83.3) n (%)
- Overall ECG result Abnormal, NCS (60 mg (N = 6), 8 h): 2 (33.3) n (%)
- Overall ECG result Normal (60 mg (N = 6), 8 h): 4 (66.7) n (%)
- Overall ECG result Abnormal, NCS (60 mg (N = 6), 12 h): 3 (50.0) n (%)
- Overall ECG result Normal (60 mg (N = 6), 12 h): 3 (50.0) n (%)
- Overall ECG result Abnormal, NCS (60 mg (N = 6), 24 h): 2 (33.3) n (%)
- Overall ECG result Normal (60 mg (N = 6), 24 h): 4 (66.7) n (%)
- Overall ECG result Abnormal, NCS (60 mg (N = 6), 48 h): 2 (33.3) n (%)
- Overall ECG result Normal (60 mg (N = 6), 48 h): 4 (66.7) n (%)
- Overall ECG result Abnormal, NCS (60 mg (N = 6), 72 h): 1 (16.7) n (%)
- Overall ECG result Normal (60 mg (N = 6), 72 h): 5 (83.3) n (%)
- Overall ECG result Abnormal, NCS (60 mg (N = 6), Visit 3): 1 (16.7) n (%)
- Overall ECG result Normal (60 mg (N = 6), Visit 3): 5 (83.3) n (%)
- Overall ECG result Abnormal, NCS (100 mg (N = 6), 0.5 h): 1 n (%)
- Overall ECG result Normal (100 mg (N = 6), 0.5 h): 5 n (%)
- Overall ECG result Abnormal, NCS (100 mg (N = 6), 1 h): 0 n (%)
- Overall ECG result Normal (100 mg (N = 6), 1 h): 6 n (%)
- Overall ECG result Abnormal, NCS (100 mg (N = 6), 2 h): 1 n (%)
- Overall ECG result Normal (100 mg (N = 6), 2 h): 5 n (%)
- Overall ECG result Abnormal, NCS (100 mg (N = 6), 3 h): 3 n (%)
- Overall ECG result Normal (100 mg (N = 6), 3 h): 3 n (%)
- Overall ECG result Abnormal, NCS (100 mg (N = 6), 5 h): 1 n (%)
- Overall ECG result Normal (100 mg (N = 6), 5 h): 5 n (%)
- Overall ECG result Abnormal, NCS (100 mg (N = 6), 8 h): 1 n (%)
- Overall ECG result Normal (100 mg (N = 6), 8 h): 5 n (%)
- Overall ECG result Abnormal, NCS (100 mg (N = 6), 12 h): 0 n (%)
- Overall ECG result Normal (100 mg (N = 6), 12 h): 6 n (%)
- Overall ECG result Abnormal, NCS (100 mg (N = 6), 24 h): 1 n (%)
- Overall ECG result Normal (100 mg (N = 6), 24 h): 5 n (%)
- Overall ECG result Abnormal, NCS (100 mg (N = 6), 48 h): 1 n (%)
- Overall ECG result Normal (100 mg (N = 6), 48 h): 5 n (%)
- Overall ECG result Abnormal, NCS (100 mg (N = 6), 72 h): 0 n (%)
- Overall ECG result Normal (100 mg (N = 6), 72 h): 6 n (%)
- Overall ECG result Abnormal, NCS (100 mg (N = 6), Visit 3): 0 n (%)
- Overall ECG result Normal (100 mg (N = 6), Visit 3): 6 n (%)
- QTcF Average (100 mg, subject 9056, 0.5 h): 425 ms
